These results are taken from US20150141411A1, “SUBSTITUTED 3,4-DIHYDRO-2H-PYRIDO[1,2-A]PYRAZINE-1,6-DIONE DERIVATIVES USEFUL FOR THE TREATMENT OF (INTER ALIA) ALZHEIMER'S DISEASE” (Janssen Pharmaceuticals, Inc., priority 2012, published 2015).

In series [1] the target is T1, γ-secretase (Homo sapiens, UniProt P49768).
T1 construct: endogenous in cells; host or cells: SKNBE2 human neuroblastoma cells (carrying hAPP 695 wild type as substrate)
The series is described as follows: Screening for γ-secretase-modulating activity: Aβ42 in supernatant of SKNBE2 cells carrying hAPP 695 wild type (Alphalisa). The settings on record: SKNBE2 human neuroblastoma cells carrying hAPP 695 wild type, overnight incubation, Aβ42 in cell supernatant. In kind it is cell-based. The method, boiled down: (§1)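 SKNBE2 neuroblastoma cells expressing wild-type hAPP 695 plated at 10^4 cells/well in Ultraculture with test compound, incubated overnight at 37° C. Aβ42 (C-terminal/N-terminal antibody pair) and Aβtotal (N-terminal/4G8 pair) in supernatant quantified by AlphaLISA. IC50 from 4-parameter fit of percent of compound-free control.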

Series [2] deals with T1, γ-secretase. The experiment in a line: Screening for γ-secretase-modulating activity: Aβtotal in supernatant of SKNBE2 cells carrying hAPP 695 wild type (Alphalisa). Format: cell-based. To be noted: SKNBE2 human neuroblastoma cells carrying hAPP 695 wild type, overnight incubation, Aβtotal in cell supernatant. The gist of the method:
as §1

One may read the IC50 as the concentration at which inhibition is half-maximal. Read a low IC50 as higher potency. As a reminder, the melting point is the temperature, or range, at which the solid turns liquid. Consider `Cc1cn(-c2ccc3n(c2=O)CCN(Cc2cn(C)c4cc(Cl)c(Cl)cc24)C3=O)cn1` [compound 254], for which the melting point worked out at 217 °C. The molecule also gave an IC50 against γ-secretase [1] of 20 nM. The molecule also yielded an IC50 against γ-secretase [2] of 6 µM.
`COc1ccc(CN2C(=O)c3ccc(-n4cnc(C)c4)c(=O)n3C[C@H]2C)cc1C(F)(F)F` [compound 67]: the melting point turned out to be 140.2 °C. In addition, the IC50 at γ-secretase [1] turned out to be 560 nM. For the same molecule, the half-maximal inhibitory concentration (IC50) against γ-secretase [2] is over 10 µM.
For `Cc1cn(-c2ccc3n(c2=O)CCN(Cc2cccc(N4CCCCC4)c2)C3=O)cn1` [compound 96] the same measures were 163.6 °C, 760 nM and over 10 µM.
For `Cc1cn(-c2ccc3n(c2=O)CCN(CCC2CCCCC2)C3=O)cn1` [compound 18] the same measures were 192.6 °C, 1700 nM and over 10 µM.
On the same counts, the results for `Cc1cn(-c2ccc3n(c2=O)C[C@@H](C)N(Cc2cccc(N4CCCCC4)c2)C3=O)cn1` [compound 84] are 108.2 °C, 230 nM and over 10 µM.
The molecule `Cc1cn(-c2ccc3n(c2=O)C[C@@H](C)N(Cc2cn(C)c4cc(F)c(Cl)cc24)C3=O)cn1` [compound 196] had a melting point of 187 °C. On γ-secretase [1], this molecule showed an IC50 of 20 nM. At γ-secretase [2], the IC50 was determined as 7.41 µM.
`Cc1cn(-c2ccc3n(c2=O)CCN(C(C)c2cc(F)cc(C(F)(F)F)c2)C3=O)cn1` (stereo not drawn) [compound 168] returned a melting point of 225.6 °C. The same molecule yielded an IC50 against γ-secretase [1] of 1410 nM. In addition, the IC50 against γ-secretase [2] is over 10 µM.
As to `Cc1cn(-c2ccc3n(c2=O)C[C@@H](C)N(Cc2ccc4scc(Br)c4c2)C3=O)cn1` [compound 115], the melting point worked out at 101.4 °C. This molecule also displayed an IC50 against γ-secretase [1] of 140 nM. Moreover, the IC50 at γ-secretase [2] is over 10 µM.
For `Cc1cn(-c2ccc3n(c2=O)C[C@@H](C)N(Cc2ccccc2)C3=O)cn1` [compound 124], the melting point stood at 136.5 °C. The molecule also showed an IC50 against γ-secretase [1] of 2340 nM. At γ-secretase [2], the IC50 is over 10 µM.
The molecule `Cc1cn(-c2ccc3n(c2=O)C[C@@H](C)N(Cc2cn(C)c4cc(Cl)c(Cl)cc24)C3=O)cn1` [compound 255] displayed a melting point of 265 °C. Further, the IC50 on γ-secretase [1] turned out to be 10 nM. The molecule also displayed an IC50 on γ-secretase [2] of 3 µM.
For `Cc1cn(-c2ccc3n(c2=O)CCN(Cc2cccc(Cl)c2Cl)C3=O)cn1` [compound 36] the same measures were 224.9 °C, 510 nM and over 10 µM.
For `Cc1cn(-c2cc(Cl)c3n(c2=O)CCN(Cc2cccc(-c4ccccc4)c2)C3=O)cn1` [compound 88] the same measures were 136.5 °C, 1860 nM and over 10 µM.
For `Cc1cn(-c2ccc3n(c2=O)C[C@@H](C)N(Cc2cc(Cl)cc(Cl)c2)C3=O)cn1` [compound 131] the same measures were 170.7 °C, 200 nM and over 10 µM.
The molecule `Cc1cn(-c2ccc3n(c2=O)C[C@@H](C)N(Cc2cccc(Cl)c2C)C3=O)cn1` [compound 40] gave a melting point of 182.1 °C. On γ-secretase [1], this molecule had an IC50 of 510 nM. On γ-secretase [2], this molecule yielded an IC50 of over 10 µM.
For `Cc1cn(-c2ccc3n(c2=O)C[C@@H](C)N(Cc2cc(C(F)(F)F)ccc2F)C3=O)cn1` [compound 70] the same measures were 108.5 °C, 580 nM and over 10 µM.
For `Cc1cn(-c2ccc3n(c2=O)C[C@@H](C)N(CCc2cc(Cl)ccc2Cl)C3=O)cn1` [compound 230] the same measures were 192 °C, 210 nM and over 10 µM.
`CCn1cc(C(C)N2C(=O)c3ccc(-n4cnc(C)c4)c(=O)n3CC2C)c2cc(Cl)cc(F)c21` (single isomer, unassigned) [compound 221]: the melting point stood at 194 °C. Further, the midpoint of inhibition against γ-secretase [1], the IC50, lay at 5 nM. The IC50 against γ-secretase [2] came to 0.79 µM.
On the same counts, the results for `Cc1cn(-c2ccc3n(c2=O)CCN(Cc2cc(C(F)(F)F)cc(C(F)(F)F)c2)C3=O)cn1` [compound 53] are 219 °C, 210 nM and over 10 µM.
On the same counts, the results for `Cc1cn(-c2ccc3n(c2=O)CCN(C2CC2c2ccc(Cl)cc2)C3=O)cn1` (stereo not drawn) [compound 30] are 168.5 °C, 2040 nM and over 10 µM.
`Cc1cn(-c2ccc3n(c2=O)C[C@@H](C)N(C(C)c2cc(Cl)cc(Cl)c2)C3=O)cn1` (single isomer, unassigned) [compound 211]: the melting point came out at 146 °C. In addition, the half-inhibitory concentration (IC50) against γ-secretase [1] came out at 90 nM. On γ-secretase [2], this molecule showed an IC50 of over 10 µM.
The molecule `Cc1cn(-c2ccc3n(c2=O)CCN(Cc2ccc(OC(F)(F)F)cc2C)C3=O)cn1` [compound 75] yielded a melting point of 214.1 °C. In addition, the IC50 on γ-secretase [1] is 980 nM. The molecule further came in with an IC50 on γ-secretase [2] of over 10 µM.
`Cc1cn(-c2ccc3n(c2=O)CC(C)N(C(C)c2cn(C)c4cc(F)c(Cl)cc24)C3=O)cn1` (single isomer, unassigned) [compound 190] registered a melting point of 255 °C. The molecule also gave an IC50 against γ-secretase [1] of 10 nM. Further, at γ-secretase [2], the IC50 was 3.31 µM.
The molecule `Cc1cn(-c2ccc3n(c2=O)C[C@@H](C)N(CCc2cccc(C(F)(F)F)c2C)C3=O)cn1` [compound 229] had a melting point of 129 °C. For the same molecule, the IC50 against γ-secretase [1] amounted to 130 nM. Besides, the IC50 against γ-secretase [2] is over 10 µM.
For `Cc1cn(-c2ccc3n(c2=O)CCN(C2CCCc4ccc(C(F)(F)F)cc42)C3=O)cn1` (stereo not drawn) [compound 106] the same measures were 189.4 °C, 720 nM and over 10 µM.
For `CCn1cc(CN2C(=O)c3ccc(-n4cnc(C)c4)c(=O)n3C[C@H]2C)c2cc(OC)c(Cl)cc21` [compound 251] the same measures were 150 °C, 20 nM and 6 µM.
On to `Cc1cn(-c2ccc3n(c2=O)CCN(Cc2cccc(-c4ccc(F)cc4C(F)(F)F)c2)C3=O)cn1` [compound 90], for which the melting point lay in the range of 138 to 143 °C. The midpoint of inhibition on γ-secretase [1], the IC50, lay at 70 nM. Also, the IC50 at γ-secretase [2] was over 10 µM.
`Cc1cn(-c2ccc3n(c2=O)CCN(C2CCCc4c2cccc4C(F)(F)F)C3=O)cn1` (stereo not drawn) [compound 107] had a melting point of 257.3 °C. This molecule also displayed an IC50 against γ-secretase [1] of 2450 nM. The molecule further came in with a concentration for half-maximal inhibition (IC50) at γ-secretase [2] of over 10 µM.
Turning to `Cc1cn(-c2ccc3n(c2=O)CCN(Cc2cccc(N4CCCCC4)c2C)C3=O)cn1` [compound 97], the melting point was 207.8 °C. The same molecule gave a 50% inhibitory concentration (IC50) against γ-secretase [1] of 440 nM. In addition, the 50% inhibitory concentration (IC50) against γ-secretase [2] is over 10 µM.
With `Cc1cn(-c2ccc3n(c2=O)C[C@@H](C)N(Cc2cn(C(C)C)c4cc(Br)ccc24)C3=O)cn1` [compound 200], the melting point came out at 181 °C. At γ-secretase [1], this molecule had a concentration for half-maximal inhibition (IC50) of 20 nM. Besides, the IC50 on γ-secretase [2] is over 10 µM.
With `Cc1cn(-c2ccc3n(c2=O)CCN(C(C)c2cn(C)c4cc(F)c(Cl)cc24)C3=O)cn1` (single isomer, unassigned) [compound 186], the melting point turned out to be 261 °C. For the same molecule, the 50% inhibitory concentration (IC50) against γ-secretase [1] was determined as 780 nM. On γ-secretase [2], the IC50 was over 10 µM.
For `Cc1cn(-c2ccc3n(c2=O)C[C@@H](C)N(Cc2cccc(Cl)c2F)C3=O)cn1` [compound 35] the same measures were 182.2 °C, 1020 nM and over 10 µM.
Turning to `Cc1cn(-c2ccc3n(c2=O)CCN(C(C)c2cc(Cl)cc(Cl)c2)C3=O)cn1` (single isomer, unassigned) [compound 208], the melting point turned out to be 206 °C. This molecule also returned an IC50 against γ-secretase [1] of 3890 nM. The molecule further showed an IC50 against γ-secretase [2] of over 10 µM.
`Cc1cn(-c2ccc3n(c2=O)CCN(Cc2cn(C)c4c(Cl)cc(Cl)cc24)C3=O)cn1` [compound 259] registered a melting point of 230 °C. On γ-secretase [1], this molecule showed an IC50 of 20 nM. On γ-secretase [2], this molecule registered an IC50 of 6 µM.
